Test results published in ChEMBL document CHEMBL1201862, “PubChem BioAssay data set” (2004).
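Tested at 5 concentrations; 48 h exposure; 96-well plates; endpoints linearly interpolated, else capped at highest concentration. At the GI50, growth is halved.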 Activity calls are given as the source filed them. No stated cut-off is given here; in the data, active = GI50 up to about 1.1 µM and inactive = higher.

What was measured:
Experiment in all cases: inhibition of tumour cell growth, NCI panel, 48 h
SK-MEL-5 = system: SK-MEL-5
M14 = system: M14
EKVX = system: EKVX
U-251 = system: U-251
SK-OV-3 = system: SK-OV-3
MOLT-4 = system: MOLT-4
SF-295 = system: SF-295
NCI-H226 = system: NCI-H226
IGROV-1 = system: IGROV-1
SK-MEL-28 = system: SK-MEL-28
HOP-62 = system: HOP-62
OVCAR-5 = system: OVCAR-5
LOX IMVI = system: LOX IMVI
SF-268 = system: SF-268
NCI-H522 = system: NCI-H522
KM12 = system: KM12
HL-60 = system: HL-60
A549 = system: A549
XF498 = system: XF498
UACC-62 = system: UACC-62
SK-MEL-2 = system: SK-MEL-2
K562 = system: K562
A498 = system: A498
Malme-3M = system: Malme-3M
HCT-116 = system: HCT-116
HOP-92 = system: HOP-92
SW-620 = system: SW-620
SF-539 = system: SF-539
DMS-273 = system: DMS-273
HCT-15 = system: HCT-15
CCRF-CEM = system: CCRF-CEM
OVCAR-8 = system: OVCAR-8
UO-31 = system: UO-31
DLD-1 = system: DLD-1
OVCAR-3 = system: OVCAR-3
HCC 2998 = system: HCC 2998
SR = system: SR
UACC-257 = system: UACC-257
KM-20L2 = system: KM-20L2
SNB-75 = system: SNB-75
TK-10 = system: TK-10
SNB-19 = system: SNB-19
HT-29 = system: HT-29
SNB-78 = system: SNB-78
RPMI-8226 = system: RPMI-8226
COLO 205 = system: COLO 205
DMS-114 = system: DMS-114
786-0 = system: 786-0
HOP-18 = system: HOP-18
SN12C = system: SN12C
M19-MEL = system: M19-MEL
ACHN = system: ACHN
NCI-H23 = system: NCI-H23
RXF 393 = system: RXF 393
CAKI-1 = system: CAKI-1
MCF7 = system: MCF7
NCI-H460 = system: NCI-H460
OVCAR-4 = system: OVCAR-4
NCI/ADR-RES = system: NCI/ADR-RES

Compound: CCOC(=O)C1Cc2ccc3c4c(ccc(c24)C1)CC(C(=O)OCC)C3
- GI50 (SK-MEL-5): > 100 µM (inactive)
- GI50 (M14): > 100 µM (inactive)
- GI50 (EKVX): > 100 µM (inactive)
- GI50 (U-251): > 100 µM (inactive)
- GI50 (SK-OV-3): > 100 µM (inactive)
- GI50 (MOLT-4): > 100 µM (inactive)
- GI50 (SF-295): > 100 µM (inactive)
- GI50 (NCI-H226): > 100 µM (inactive)
- GI50 (IGROV-1): > 100 µM (inactive)
- GI50 (SK-MEL-28): > 100 µM (inactive)
- GI50 (HOP-62): > 100 µM (inactive)
- GI50 (OVCAR-5): > 100 µM (inactive)
- GI50 (LOX IMVI): > 100 µM (inactive)
- GI50 (SF-268): > 100 µM (inactive)
- GI50 (NCI-H522): > 100 µM (inactive)
- GI50 (KM12): > 100 µM (inactive)
- GI50 (HL-60): > 100 µM (inactive)
- GI50 (A549): > 100 µM (inactive)
- GI50 (XF498): > 100 µM (inactive)
- GI50 (UACC-62): > 100 µM (inactive)
- GI50 (SK-MEL-2): > 100 µM (inactive)
- GI50 (K562): > 100 µM (inactive)
- GI50 (A498): > 100 µM (inactive)
- GI50 (Malme-3M): > 100 µM (inactive)
- GI50 (HCT-116): > 100 µM (inactive)
- GI50 (HOP-92): > 100 µM (inactive)
- GI50 (SW-620): > 100 µM (inactive)
- GI50 (SF-539): > 100 µM (inactive)
- GI50 (DMS-273): > 100 µM (inactive)
- GI50 (HCT-15): > 100 µM
- GI50 (CCRF-CEM): > 100 µM (inactive)
- GI50 (OVCAR-8): > 100 µM (inactive)
- GI50 (UO-31): > 100 µM (inactive)
- GI50 (DLD-1): > 100 µM (inactive)
- GI50 (OVCAR-3): > 100 µM (inactive)
- GI50 (HCC 2998): > 100 µM (inactive)
- GI50 (SR): > 100 µM (inactive)
- GI50 (UACC-257): > 100 µM (inactive)
- GI50 (KM-20L2): > 100 µM (inactive)
- GI50 (SNB-75): > 100 µM (inactive)
- GI50 (TK-10): > 100 µM (inactive)
- GI50 (SNB-19): > 100 µM (inactive)
- GI50 (HT-29): > 100 µM (inactive)
- GI50 (SNB-78): > 100 µM (inactive)
- GI50 (RPMI-8226): > 100 µM (inactive)
- GI50 (COLO 205): > 100 µM (inactive)
- GI50 (DMS-114): > 100 µM (inactive)
- GI50 (786-0): > 100 µM (inactive)
- GI50 (HOP-18): > 100 µM (inactive)
- GI50 (SN12C): > 100 µM (inactive)
- GI50 (M19-MEL): > 100 µM (inactive)
- GI50 (ACHN): > 100 µM (inactive)
- GI50 (NCI-H23): > 100 µM (inactive)
- GI50 (RXF 393): > 100 µM (inactive)

Compound: CC(C(=O)O)c1cnn(-c2ccccc2)c1-n1cccc1 (configuration not stated)
- GI50 (SK-MEL-5): > 100 µM (inactive)
- GI50 (EKVX): > 100 µM (inactive)
- GI50 (U-251): > 100 µM (inactive)
- GI50 (SK-OV-3): > 100 µM (inactive)
- GI50 (MOLT-4): > 100 µM (inactive)
- GI50 (SF-295): > 100 µM (inactive)
- GI50 (NCI-H226): > 100 µM (inactive)
- GI50 (IGROV-1): > 100 µM (inactive)
- GI50 (SK-MEL-28): > 100 µM (inactive)
- GI50 (HOP-62): > 100 µM (inactive)
- GI50 (OVCAR-5): > 100 µM (inactive)
- GI50 (LOX IMVI): > 100 µM (inactive)
- GI50 (SF-268): > 100 µM (inactive)
- GI50 (NCI-H522): > 100 µM (inactive)
- GI50 (CAKI-1): > 100 µM (inactive)
- GI50 (MCF7): > 100 µM (inactive)
- GI50 (KM12): > 100 µM (inactive)
- GI50 (HL-60): > 100 µM (inactive)
- GI50 (A549): > 100 µM (inactive)
- GI50 (XF498): > 100 µM (inactive)
- GI50 (UACC-62): > 100 µM (inactive)
- GI50 (SK-MEL-2): > 100 µM (inactive)
- GI50 (K562): > 100 µM (inactive)
- GI50 (A498): > 100 µM (inactive)
- GI50 (NCI-H460): > 100 µM (inactive)
- GI50 (Malme-3M): > 100 µM (inactive)
- GI50 (HCT-116): > 100 µM (inactive)
- GI50 (HOP-92): > 100 µM (inactive)
- GI50 (SW-620): > 63 µM (inactive)
- GI50 (SF-539): > 100 µM (inactive)
- GI50 (DMS-273): > 100 µM (inactive)
- GI50 (HCT-15): > 100 µM
- GI50 (CCRF-CEM): > 100 µM (inactive)
- GI50 (OVCAR-8): > 100 µM (inactive)
- GI50 (UO-31): > 100 µM (inactive)
- GI50 (DLD-1): > 100 µM (inactive)
- GI50 (OVCAR-3): > 63.7 µM (inactive)
- GI50 (HCC 2998): > 100 µM (inactive)
- GI50 (UACC-257): > 100 µM (inactive)
- GI50 (KM-20L2): > 100 µM (inactive)
- GI50 (SNB-75): > 100 µM (inactive)
- GI50 (SNB-19): > 100 µM (inactive)
- GI50 (HT-29): > 100 µM (inactive)
- GI50 (SNB-78): > 100 µM (inactive)
- GI50 (RPMI-8226): > 100 µM (inactive)
- GI50 (COLO 205): > 100 µM (inactive)
- GI50 (OVCAR-4): > 100 µM (inactive)
- GI50 (NCI/ADR-RES): > 100 µM (inactive)
- GI50 (HOP-18): > 100 µM (inactive)
- GI50 (SN12C): > 100 µM (inactive)
- GI50 (M19-MEL): > 100 µM (inactive)
- GI50 (NCI-H23): > 100 µM (inactive)
- GI50 (RXF 393): > 100 µM (inactive)
